# From EP0112669A2, “Phenethylamine derivatives and intermediates therefor” (AMERICAN HOME PRODUCTS CORPORATION, priority 1982, dated 1984)
# Like-named read-outs stand apart in the source and are kept apart here.
# What was measured:
# [1] = biological target: ^3H-imipramine binding in brain tissue
# [2] = biological target: T1, synaptosomal uptake of serotonin (14C-5-HT) (Homo sapiens, UniProt P31645); assay: biochemical
# T1 construct: from tissue
# [3] = system: reserpine-induced hypothermia; assay: Antagonism of reserpine-induced hypothermia; type: in vivo, mice; conditions: for minimal effective dose: Mus musculus, read-out: minimum effective dose (M.E.D.), antagonism of reserpine-induced hypothermia; for potency relative to Compound A in reversal of reserpine-induced hypothermia: compared with Compound A
# Procedure: 37, 795-797 (1981); and antagonize reserpine induced hypothermia when tested in accordance with the procedure of Askew, Life Sci. 1, 725-730 (1963).
# All mice received 5mg/kg reserpine s.c. 18 h prior to test compound.
# [4] = biological target: synaptosomal uptake of norepinephrine (^3H-NE); assay: Inhibition of synaptosomal NE uptake
# muscarinic receptor = conditions: read-out: Ki (^3H-QNB binding)
# [5] = system: carbachol-stimulated contraction of the guinea-pig ileum; assay: Inhibition of carbachol-stimulated contraction of guinea-pig ileum
# [6] = read-out: inhibition constant (Ki) vs. ^3H-imipramine
# [7] = ip, mice, n = 8 per group, 5mg/kg reserpine s.c. 18 h prior to test compound
# [8] = unit inferred, read-out: inhibition constants (vs. ^3H-imipramine)
# Chain of synaptosomal uptake of norepinephrine (^3H-NE) (P23975 whole entry): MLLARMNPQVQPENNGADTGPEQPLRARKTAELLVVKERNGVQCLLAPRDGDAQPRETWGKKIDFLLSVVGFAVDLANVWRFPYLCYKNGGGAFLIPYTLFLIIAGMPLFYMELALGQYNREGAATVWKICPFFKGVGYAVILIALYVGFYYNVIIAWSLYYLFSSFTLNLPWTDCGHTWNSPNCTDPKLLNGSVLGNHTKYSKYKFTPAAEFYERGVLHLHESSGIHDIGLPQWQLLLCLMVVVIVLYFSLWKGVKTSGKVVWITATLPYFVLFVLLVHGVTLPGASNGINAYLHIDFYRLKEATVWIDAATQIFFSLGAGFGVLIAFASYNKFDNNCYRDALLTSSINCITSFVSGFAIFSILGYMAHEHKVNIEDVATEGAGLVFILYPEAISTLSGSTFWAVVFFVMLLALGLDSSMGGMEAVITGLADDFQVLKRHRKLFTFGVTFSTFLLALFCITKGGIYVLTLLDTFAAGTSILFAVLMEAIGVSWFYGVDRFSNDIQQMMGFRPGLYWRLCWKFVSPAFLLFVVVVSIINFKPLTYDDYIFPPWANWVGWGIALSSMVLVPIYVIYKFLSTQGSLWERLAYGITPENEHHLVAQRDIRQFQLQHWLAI
# T1 sequence (P31645 whole entry): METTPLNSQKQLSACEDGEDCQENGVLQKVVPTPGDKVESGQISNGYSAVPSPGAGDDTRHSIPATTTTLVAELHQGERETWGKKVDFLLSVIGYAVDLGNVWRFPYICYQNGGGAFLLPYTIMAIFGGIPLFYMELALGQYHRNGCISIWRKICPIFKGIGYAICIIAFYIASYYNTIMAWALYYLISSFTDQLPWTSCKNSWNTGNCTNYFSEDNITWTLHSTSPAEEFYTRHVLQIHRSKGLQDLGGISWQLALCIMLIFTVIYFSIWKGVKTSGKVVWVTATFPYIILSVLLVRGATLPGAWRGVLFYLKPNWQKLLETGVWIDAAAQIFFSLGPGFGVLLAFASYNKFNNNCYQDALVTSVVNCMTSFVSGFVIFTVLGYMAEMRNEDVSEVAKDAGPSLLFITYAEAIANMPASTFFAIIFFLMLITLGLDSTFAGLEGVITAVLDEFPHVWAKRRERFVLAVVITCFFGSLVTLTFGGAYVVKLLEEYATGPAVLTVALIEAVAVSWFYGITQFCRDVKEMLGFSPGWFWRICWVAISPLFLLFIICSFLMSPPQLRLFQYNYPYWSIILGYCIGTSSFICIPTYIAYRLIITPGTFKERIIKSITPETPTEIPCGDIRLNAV
Structure (SMILES),"minimal effective dose [3, 7] [mg/kg]",potency relative to Compound A in reversal of reserpine-induced hypothermia ([3]; mice),IC50 [4] [nM],"Ki [1, 8] [nM]",other results
"CN(C)CC(c1ccc(Cl)cc1)C1(O)CCCCC1 (centres unmarked) [Compound C, 1-[1-(4-chlorophenyl)-2-(dimethylamino)ethyl]-cyclohexanol]",10,approximately equipotent,330,,"Ki [1, 6]: 100 nM; IC50 [2]: 250 nM"
"CNCCCN1c2ccccc2CCc2ccccc21 [DMI, desmethyl- imipramine, reference compound]",,,,,Ki (muscarinic receptor): […]; minimal effective dose ([3]; ip): 0.4 mg/kg
"COc1ccc(C2CN(C)COC23CCCCC3)cc1 (stereo not drawn) [Compound B, 5-(4-methoxyphenyl)-3-methyl-3-aza-l-oxas^piro(5.5) undecane]",30,less potent,4700,,"Ki [1, 6]: 350 nM; IC50 [2]: 2900 nM"
"CN(C)CC(c1ccc(Cl)c(Cl)c1)C1(O)CCCCC1 (centres unmarked) [Compound G, 1-[1-(3,4-dichlorophenyl)-2-(dimethylamino)ethyl]-cyclohexanol]",3,approximately three times as potent,70,37,
"CN(C)CC(c1ccc(Br)cc1)C1(O)CCCCC1 (centres unmarked) [Compound D, 1-[1-(4-bromophenyl)-2-(dimethylamino)ethyl]-cyclohexanol]",3,approximately three times as potent,,62,
"CN(C)CCCN1c2ccccc2CCc2ccccc21 [Imipramine, reference compound]",,,,,"Ki (muscarinic receptor): 37 nM; Kb ([5]; Cavia porcellus, read-out: KB against carbachol-stimulated contraction of the guinea-pig ileum): ~100 nM"
"CN(C)CC(c1cccc(Br)c1)C1(O)CCCCC1 (centres unmarked) [Compound F, 1-[1-(3-bromophenyl)-2-(dimethylamino)ethyl]-cyclohexanol]",1,approximately ten times as potent,,52,
"COc1ccc(C(CN(C)C)C2(O)CCCCC2)cc1 (racemic) [Compound A, 1-[(2-dimethylamino)-1-(4-methoxyphenyl)ethyl]-cyclohexanol]",,,,,activity against carbachol-stimulated contraction of the guinea-pig ileum ([5]; at 1 µM): inactive; minimal effective dose ([3]; ip): 10 mg/kg; minimal effective dose ([3]; po): 10 mg/kg
"CN(C)CC(c1cccc(Cl)c1)C1(O)CCCCC1 (centres unmarked) [Compound E, 1-[1-(3-chlorophenyl)-2-(dimethylamino)ethyl]-cyclohexanol]",1,,,,Ki ([1]; read-out: inhibition constants (vs. ^3H-imipramine)): 130 nM
